According to article PMC12631006, “Gold‐Dithiocarbamato Glycoconjugates as Potential Anticancer Agents: Design, Physico‐Chemical Characterization, and In Vitro Biological Activity” (Chembiochem, 2025):

Legend:
HT‐29 cells = test: Cell growth inhibition assay (Crystal Violet); format: cell-based, human; details: HT‐29 colorectal adenocarcinoma cells, 72 h incubation, mean ± SD of three independent experiments
Procedure: (§1) The capability of the gold(III) complexes Au1‐5, the gold(I)‐phosphine derivatives AuP1‐5, and the gold(I)‐carbene counterparts AuC1‐5 to inhibit cell proliferation was assayed on three human tumor cell lines, namely, colorectal adenocarcinoma (HT‐29), metastatic breast adenocarcinoma (MDA‐MB‐231), and breast adenocarcinoma (MCF‐7) cells, whereas human non‐malignant kidney epithelial (RC‐124) cells were used as non‐tumor reference cell line. […]
(§2) high-glucose Dulbecco’s Modified Eagle’s Medium (4.5 g L-1 D-glucose, 4 mM L-glutamine, 1 mM sodium pyruvate, 1.5 g L-1 sodium bicarbonate; Life Technologies). […]
(§3) Cells were cultured at 37°C in 5% CO2 and moisture-enriched atmosphere in the respective medium […]
(§4) (Biochrom) and passaged once a week. […]
(§5) Cell growth inhibition assay
(§6) Stock solutions of the gold(III) complexes Au1-5, and the gold(I) complexes AuP1-5 and AuC1-5 in DMF were freshly prepared and subsequently diluted with the appropriate complete cell culture medium […]
(§7) The in vitro antiproliferative activity of the various gold complexes was determined following a modified protocol previously reported.[68] 100 µL of HT-29 cells (2.5×10^3 cells mL-1), MDA-MB-231 cells […]
(§8) in 96-well cell culture plates and incubated at 37°C in 5% CO2 humidified atmosphere (note: for RC-124, pre-treated plates were used as mentioned above). After 72 h (MDA-MB-231, MCF-7, RC-124) or 48 h (HT-29), cells were treated with the test compounds at different concentrations (0.01-50 µM) and incubated for further 72 h (HT-29) or 96 h (MDA-MB-231, MCF-7, RC-124) at 37°C. The medium was then discarded, cells were washed with fresh PBS solution and harvested, and the Crystal Violet (Sigma-Aldrich/Merck) staining assay was performed to determine cell viability. The inhibition of cell growth induced by the tested compounds was assessed by measuring the absorbance of each well at 590 nm using a Victor X4 microplate reader (Perkin Elmer). Antiproliferative data are expressed as IC50 values, that is, the concentration (μM) of the test agent inhibiting cell proliferation by 50% compared with untreated […]
(§9) control cultures. […]

MCF‐7 cells [1] = test: Cell growth inhibition assay (Crystal Violet); format: cell-based, human; details: MCF‐7 breast adenocarcinoma cells, 96 h incubation, mean ± SD of three independent experiments
Procedure: as §1, §2, §3, §4, §5, §6, §7, §8, §9

MDA‐MB‐231 cells = test: Cell growth inhibition assay (Crystal Violet); format: cell-based, human; details: MDA‐MB‐231 metastatic breast adenocarcinoma cells, 96 h incubation, mean ± SD of three independent experiments
Procedure: as §1, §2, §3, §4, §5, §6, §7, §8, §9

RC‐124 cells = test: Cell growth inhibition assay (Crystal Violet), non-tumor reference; format: cell-based, human; details: RC‐124 non‐malignant kidney epithelial cells, 96 h incubation, mean ± SD of three independent experiments
Procedure: as §1
Human non-malignant kidney epithelial (RC-124) cells were maintained in McCoy’s 5A Medium (modified to contain 1.5 mM L-glutamine and 2.2 g L-1 sodium bicarbonate; Life Technologies).
as §3
(Biochrom) and passaged once a week.
For experiments involving RC-124 cells, microtiter plates were pre-treated as follows. 30 µL of a 1.5% m/v sterilized gelatine solution were added to each well of flat-bottomed 96-well plates, plates were covered with their lids and incubated for 1 h at 37°C. The excess solution was then removed, wells were washed with PBS solution (pH 7.4), and new cell culture medium was added.
as §5, §6, §7, §8, §9

[2] = system: HT‐29, MDA‐MB‐231 and MCF‐7 cells; test: Cell growth inhibition, stated over all tested tumor cell lines; format: cell-based, human; details: HT‐29, MDA‐MB‐231, MCF‐7
Procedure: as §1, §2, §3, §4
Cell growth inhibition assay […]
(§10) The in vitro antiproliferative activity of the various gold complexes was determined following a modified protocol previously reported.[68] […]
in 96-well cell culture plates and incubated at 37°C in 5% CO2 humidified atmosphere (note: for RC-124, pre-treated plates were used as mentioned above). […] The inhibition of cell growth induced by the tested compounds was assessed by measuring the absorbance of each well at 590 nm using a Victor X4 microplate reader (Perkin Elmer). […]

MCF‐7 cells [3] = test: Cellular uptake of gold (HR‐CS AAS); format: cell-based, human; details: 10 μM, 6 h
Procedure: It is often assumed that the antiproliferative activity of gold complexes is strongly linked to the efficiency of their cellular uptake and internalization. Moreover, glycoconjugates are commonly believed to enter cells through GLUTs, which, as discussed earlier, are generally over‐expressed in several cancer cells. In particular, GLUT1 is crucial for the uptake of glucose by breast cancer cells, including MDA‐MB‐231 and MCF‐7.^[ [70] ^] […] The gold levels were determined by high‐resolution continuum‐source atomic absorption spectroscopy (HR‐CS AAS) after exposure to 10 μM concentration of the selected compounds over 6 h using either a high‐glucose‐contents or glucose‐free cell culture medium. […]
as §10
in 96-well cell culture plates and incubated at 37°C in 5% CO2 humidified atmosphere (note: for RC-124, pre-treated plates were used as mentioned above). […] The inhibition of cell growth induced by the tested compounds was assessed by measuring the absorbance of each well at 590 nm using a Victor X4 microplate reader (Perkin Elmer). […] Results were calculated as the mean values ± standard deviation (SD) of three […]

[4] = Stability in PBS by UV–Vis; format: physicochemical; details: PBS pH 7.4, 37°C, 25 μM, UV–Vis over time
Procedure: DMSO and DMF are solvents commonly used to prepare stock solutions of metal complexes prior to performing biological studies, especially if poorly soluble in aqueous media. […] However, to mimic a physiological‐like environment, stability studies in phosphate‐buffered saline (PBS) solution at pH 7.4 and 37°C were carried out for the various gold complexes by UV–Vis spectrophotometry.

Row | SMILES | IC50 (HT‐29 cells) [µM] | IC50 (MCF‐7 cells [1]) [µM] | IC50 (MDA‐MB‐231 cells) [µM] | IC50 (RC‐124 cells) [µM] | IC50 values over the tested tumor cell lines [2] | Gold content (intracellular gold) (MCF‐7 cells [3]; with or without glucose (4.5 g L^−1) and with or without Cytochalasin B 50 μM) | Gold uptake in glucose‐ and Cytochalasin B‐free medium versus conditions with glucose, Cytochalasin B, or both (MCF‐7 cells [3]; not statistically significant) | Stability in PBS [4]
1 | O=C(NC1C(O)OC(CO)C(O)C1O)C1CCN(C2=[S+][Au-]([Br])([Br])[S]2)CC1 (mixture of isomers) [Au3, [Au^IIIBr2(SSC‐Inp‐GlcN1)]] | > 50 | > 50 | > 50 | > 50 | – | – | – | –
2 | CCn1[c]([Au-][S]C(=S)N2CCC(C(=O)NC3C(O)OC(CO)C(O)C3O)CC2)[n+](CC)c2ccccc21 (mixture of isomers) [AuC3, [Au^I(SSC‐Inp‐GlcN1)(Et2BzImy)]] | 22.7 ± 1 | 12.3 ± 1.4 | 11.5 ± 0.6 | – | – | – | – | –
3 | O=C(NC1C(O)OC(CO)C(O)C1O)C1CCN(C(=S)[S][Au][PH](c2ccccc2)(c2ccccc2)c2ccccc2)CC1 (mixture of isomers) [AuP3, [Au^I(SSC‐Inp‐GlcN1)(PPh3)]] | 8.8 ± 1.6 | 2.6 ± 0.4 | 2.4 ± 0.8 | – | – | – | – | –
4 | CCOC(=O)C1CCN(C2=[S+][Au-]([Br])([Br])[S]2)CC1 [Au1, [Au^IIIBr2(SSC‐Inp‐OEt)]] | 1.2 ± 0.2 | 0.8 ± 0.1 | 1.4 ± 0.2 | 0.6 ± 0.1 | low micromolar range | – | – | –
5 | NC(=O)C1CCN(C2=[S+][Au-]([Br])([Br])[S]2)CC1 [Au2, [Au^IIIBr2(SSC‐Inp‐NH2)]] | 20.1 ± 0.1 | 5.1 ± 1 | 8.9 ± 1.1 | 9.9 ± 0.8 | low micromolar range | consistently similar cellular uptake values | – | –
6 | CO[C@H]1O[C@H](CO)[C@@H](O)[C@H](O)[C@H]1NC(=O)C1CCN(C2=[S+][Au-]([Br])([Br])[S]2)CC1 [Au4, [Au^IIIBr2(SSC‐Inp‐GlcN2)]] | > 50 | > 50 | > 50 | 48.2 ± 13.2 | – | – | slightly higher | –
7 | CO[C@H]1O[C@H](CNC(=O)C2CCN(C3=[S+][Au-]([Br])([Br])[S]3)CC2)[C@@H](O)[C@H](O)[C@H]1O [Au5, [Au^IIIBr2(SSC‐Inp‐GlcN3)]] | > 50 | > 50 | > 50 | 18.8 ± 1.7 | – | – | – | –
8 | CCOC(=O)CN(C)C(=S)[S][Au]=[c]1n(CC)c2ccccc2n1CC [AuC1, [Au^I(SSC‐Sar‐OEt)(Et2BzImy)]] | 1 ± 0.1 | 0.5 ± 0.1 | 0.8 ± 0.1 | 0.6 ± 0.1 | – | – | – | –
9 | CCn1[c]([Au-][S]C(=S)N2CCC(C(N)=O)CC2)[n+](CC)c2ccccc21 [AuC2, [Au^I(SSC‐Inp‐NH2)(Et2BzImy)]] | 6.4 ± 1.3 | 4.9 ± 0.6 | 4.7 ± 0.3 | – | – | – | – | –
10 | CCn1[c]([Au-][S]C(=S)N2CCC(C(=O)N[C@H]3[C@@H](OC)O[C@H](CO)[C@@H](O)[C@@H]3O)CC2)[n+](CC)c2ccccc21 [AuC4, [Au^I(SSC‐Inp‐GlcN2)(Et2BzImy)]] | 11.3 ± 0.4 | 10.3 ± 0.3 | 10.5 ± 0.4 | – | – | – | – | –
11 | CCn1[c]([Au-][S]C(=S)N2CCC(C(=O)NC[C@H]3O[C@H](OC)[C@H](O)[C@@H](O)[C@@H]3O)CC2)[n+](CC)c2ccccc21 [AuC5, [Au^I(SSC‐Inp‐GlcN3)(Et2BzImy)]] | 11.8 ± 1.1 | 10.6 ± 0.6 | 9.6 ± 1.5 | – | – | – | – | major spectral changes occur soon after dissolution
12 | CCOC(=O)C1CCN(C(=S)[S][Au][PH](c2ccccc2)(c2ccccc2)c2ccccc2)CC1 [AuP1, [Au^I(SSC‐Inp‐OEt)(PPh3)]] | 0.5 ± 0.1 | 0.2 ± 0.1 | 0.6 ± 0.2 | – | – | – | – | –
13 | NC(=O)C1CCN(C(=S)[S][Au][PH](c2ccccc2)(c2ccccc2)c2ccccc2)CC1 [AuP2, [Au^I(SSC‐Inp‐NH2)(PPh3)]] | 2.9 ± 0.7 | 1.3 ± 0.1 | 1.4 ± 0.3 | – | – | – | – | –
14 | CO[C@H]1O[C@H](CO)[C@@H](O)[C@H](O)[C@H]1NC(=O)C1CCN(C(=S)[S][Au][PH](c2ccccc2)(c2ccccc2)c2ccccc2)CC1 [AuP4, [Au^I(SSC‐Inp‐GlcN2)(PPh3)]] | 6.3 ± 0.5 | 2.4 ± 0.4 | 2.4 ± 0.7 | – | – | – | – | –
15 | CO[C@H]1O[C@H](CNC(=O)C2CCN(C(=S)[S][Au][PH](c3ccccc3)(c3ccccc3)c3ccccc3)CC2)[C@@H](O)[C@H](O)[C@H]1O [AuP5, [Au^I(SSC‐Inp‐GlcN3)(PPh3)]] | 6.7 ± 1.1 | 2.5 ± 0.4 | 2.5 ± 0.5 | – | – | – | – | –
